Reference: patent US10004701B2, “Methods and compositions for treating infection” (UNIVERSITY OF ROCHESTER, priority 2012, dated 2018)
Structures can show the parent of a compound that is named as a salt. Where two headings read alike, the source gives them in different places.

Columns and labels:
Assay in all cases: AK assay 384-well format, Prestwick library screening
E. faecium = assay type: cell-based, Enterococcus faecium; conditions: 50 μM final drug concentration; for fold induction at 50 µM: Enterococcus faecium, 3 h
[1] = tested on: S. aureus strain USA300-0114; assay type: cell-based, Staphylococcus aureus; conditions: 50 μM final drug concentration; for fold induction at 50 µM: Staphylococcus aureus, USA300, 3 h
K. pneumoniae = assay type: cell-based, Klebsiella pneumoniae; conditions: 50 μM final drug concentration; for fold induction at 50 µM: Klebsiella pneumoniae, 3 h
[2] = tested on: A. baumannii strain 98-37-09; assay type: cell-based, Acinetobacter baumannii; conditions: 50 μM final drug concentration; for fold induction at 50 µM: Acinetobacter baumannii, 983709, 3 h
P. aeruginosa = assay type: cell-based, Pseudomonas aeruginosa; conditions: 50 μM final drug concentration; for fold induction at 50 µM: Pseudomonas aeruginosa, 3 h
E. cloacae = assay type: cell-based, Enterobacter cloacae; conditions: 50 μM final drug concentration; for fold induction at 50 µM: Enterobacter cloacae, 3 h
E. coli = assay type: cell-based, Escherichia coli; conditions: 50 μM final drug concentration; for fold induction at 50 µM: Escherichia coli, 3 h
[3] = planktonic, cutoff for positive-scoring molecules 3-fold increase, read-out: AK-based Prestwick Library Screening Results, E. faecium (fold increase in extracellular AK activity)
[4] = planktonic, cutoff for positive-scoring molecules 3-fold increase, read-out: AK-based Prestwick Library Screening Results, S. aureus (fold increase in extracellular AK activity)
[5] = planktonic, cutoff for positive-scoring molecules 3-fold increase, read-out: AK-based Prestwick Library Screening Results, K. pneumoniae (fold increase in extracellular AK activity)
[6] = planktonic, cutoff for positive-scoring molecules 3-fold increase, read-out: AK-based Prestwick Library Screening Results, A. baumannii (fold increase in extracellular AK activity)
[7] = planktonic, cutoff for positive-scoring molecules 3-fold increase, read-out: AK-based Prestwick Library Screening Results, P. aeruginosa (fold increase in extracellular AK activity)
[8] = planktonic, cutoff for positive-scoring molecules 3-fold increase, read-out: AK-based Prestwick Library Screening Results, E. cloacae (fold increase in extracellular AK activity)
[9] = planktonic, cutoff for positive-scoring molecules 3-fold increase, read-out: AK-based Prestwick Library Screening Results, E. coli (fold increase in extracellular AK activity)
[10] = 384-well format, cutoff for positive-scoring molecules 3-fold increase, read-out: AK-based Prestwick Library Screening Results, E. faecium (increase in extracellular AK activity)
[11] = 384-well format, cutoff for positive-scoring molecules 3-fold increase, read-out: AK-based Prestwick Library Screening Results, S. aureus (increase in extracellular AK activity)
[12] = 384-well format, cutoff for positive-scoring molecules 3-fold increase, read-out: AK-based Prestwick Library Screening Results, K. pneumoniae (increase in extracellular AK activity)
[13] = 384-well format, cutoff for positive-scoring molecules 3-fold increase, read-out: AK-based Prestwick Library Screening Results, A. baumannii (increase in extracellular AK activity)
[14] = 384-well format, cutoff for positive-scoring molecules 3-fold increase, read-out: AK-based Prestwick Library Screening Results, P. aeruginosa (increase in extracellular AK activity)
[15] = 384-well format, cutoff for positive-scoring molecules 3-fold increase, read-out: AK-based Prestwick Library Screening Results, E. cloacae (increase in extracellular AK activity)
[16] = 384-well format, cutoff for positive-scoring molecules 3-fold increase, read-out: AK-based Prestwick Library Screening Results, E. coli (increase in extracellular AK activity)

## C[C@]12CC[C@@H]3c4ccc(O)cc4CC[C@H]3[C@@H]1CC[C@@H]2O [Estradiol-17 beta]
E. faecium; planktonic E. faecium, cutoff for positive-scoring molecules 3-fold increase
  AK-based Prestwick Library Screening Results, E. faecium (increase in extracellular AK activity): 0.9
[1]; planktonic S. aureus, cutoff for positive-scoring molecules 3-fold increase
  AK-based Prestwick Library Screening Results, S. aureus (increase in extracellular AK activity): 0.8
K. pneumoniae; planktonic K. pneumoniae, cutoff for positive-scoring molecules 3-fold increase
  AK-based Prestwick Library Screening Results, K. pneumoniae (increase in extracellular AK activity): 0.8
[2]; planktonic A. baumannii, cutoff for positive-scoring molecules 3-fold increase
  AK-based Prestwick Library Screening Results, A. baumannii (increase in extracellular AK activity): 0.8
P. aeruginosa; planktonic P. aeruginosa, cutoff for positive-scoring molecules 3-fold increase
  AK-based Prestwick Library Screening Results, P. aeruginosa (increase in extracellular AK activity): 1.0
E. cloacae; planktonic E. cloacae, cutoff for positive-scoring molecules 3-fold increase
  AK-based Prestwick Library Screening Results, E. cloacae (increase in extracellular AK activity): 1.3
E. coli; planktonic E. coli, cutoff for positive-scoring molecules 3-fold increase
  AK-based Prestwick Library Screening Results, E. coli (increase in extracellular AK activity): 1.1

## C[C@]12CC[C@@H]3c4ccc(O)cc4CC[C@H]3[C@@H]1C[C@@H](O)[C@@H]2O [Estriol]
E. faecium; planktonic E. faecium, positive cutoff 3-fold increase, read-out: AK-based Prestwick library screening result, E. faecium (fold increase in extracellular AK activity)
  fold induction at 50 µM: 1.1
[1]; planktonic S. aureus, positive cutoff 3-fold increase, read-out: AK-based Prestwick library screening result, S. aureus (fold increase in extracellular AK activity)
  fold induction at 50 µM: 1.2
K. pneumoniae; planktonic K. pneumoniae, positive cutoff 3-fold increase, read-out: AK-based Prestwick library screening result, K. pneumoniae (fold increase in extracellular AK activity)
  fold induction at 50 µM: 0.8
[2]; planktonic A. baumannii, positive cutoff 3-fold increase, read-out: AK-based Prestwick library screening result, A. baumannii (fold increase in extracellular AK activity)
  fold induction at 50 µM: 1.2
P. aeruginosa; planktonic P. aeruginosa, positive cutoff 3-fold increase, read-out: AK-based Prestwick library screening result, P. aeruginosa (fold increase in extracellular AK activity)
  fold induction at 50 µM: 1
E. cloacae; planktonic E. cloacae, positive cutoff 3-fold increase, read-out: AK-based Prestwick library screening result, E. cloacae (fold increase in extracellular AK activity)
  fold induction at 50 µM: 1.4
E. coli; planktonic E. coli, positive cutoff 3-fold increase, read-out: AK-based Prestwick library screening result, E. coli (fold increase in extracellular AK activity)
  fold induction at 50 µM: 1.1

## C[C@]12CC[C@@H]3c4ccc(O)cc4CC[C@H]3[C@@H]1CCC2=O [Estrone]
E. faecium; [3]
  fold induction at 50 µM: 0.8
[1]; [4]
  fold induction at 50 µM: 0.7
K. pneumoniae; [5]
  fold induction at 50 µM: 0.7
[2]; [6]
  fold induction at 50 µM: 0.8
P. aeruginosa; [7]
  fold induction at 50 µM: 0.8
E. cloacae; [8]
  fold induction at 50 µM: 1.4
E. coli; [9]
  fold induction at 50 µM: 0.8

## C[C@]12CC[C@@H]3c4ccc(OS(=O)(=O)O)cc4CC[C@H]3[C@@H]1CCC2=O [Estropipate]
E. faecium; [3]
  fold induction at 50 µM: 1
[1]; [4]
  fold induction at 50 µM: 1.1
K. pneumoniae; [5]
  fold induction at 50 µM: 1
[2]; [6]
  fold induction at 50 µM: 1
P. aeruginosa; [7]
  fold induction at 50 µM: 1.1
E. cloacae; [8]
  fold induction at 50 µM: 1.3
E. coli; [9]
  fold induction at 50 µM: 1.1

## O=C(Cn1ccnc1[N+](=O)[O-])NCCO [Etanidazole]
E. faecium; [3]
  fold induction at 50 µM: 0.8
[1]; [4]
  fold induction at 50 µM: 0.4
K. pneumoniae; [5]
  fold induction at 50 µM: 0.5
[2]; [6]
  fold induction at 50 µM: 0.5
P. aeruginosa; [7]
  fold induction at 50 µM: 0.4
E. cloacae; [8]
  fold induction at 50 µM: 0.4
E. coli; [9]
  fold induction at 50 µM: 0.5

## C=C(CC)C(=O)c1ccc(OCC(=O)O)c(Cl)c1Cl [Ethacrynic acid]
E. faecium; [10]
  fold induction at 50 µM: 1.3
[1]; [11]
  fold induction at 50 µM: 1.4
K. pneumoniae; [12]
  fold induction at 50 µM: 0.6
[2]; [13]
  fold induction at 50 µM: 0.8
P. aeruginosa; [14]
  fold induction at 50 µM: 0.7
E. cloacae; [15]
  fold induction at 50 µM: 0.8
E. coli; [16]
  fold induction at 50 µM: 0.7

## CC[C@@H](CO)NCCN[C@@H](CC)CO [Ethambutol dihydrochloride]
E. faecium; [10]
  fold induction at 50 µM: 0.9
[1]; [11]
  fold induction at 50 µM: 0.6
K. pneumoniae; [12]
  fold induction at 50 µM: 0.7
[2]; [13]
  fold induction at 50 µM: 0.8
P. aeruginosa; [14]
  fold induction at 50 µM: 0.7
E. cloacae; [15]
  fold induction at 50 µM: 1.1
E. coli; [16]
  fold induction at 50 µM: 0.9

## CCN(CC)C(=O)c1ccc(O)c(OC)c1 [Ethamivan]
E. faecium; planktonic E. faecium, cutoff for positive-scoring molecules 3-fold increase, read-out: AK-based Prestwick Library Screening Results, E. faecium (increase in extracellular AK activity)
  fold induction at 50 µM: 1
[1]; planktonic S. aureus, cutoff for positive-scoring molecules 3-fold increase, read-out: AK-based Prestwick Library Screening Results, S. aureus (increase in extracellular AK activity)
  fold induction at 50 µM: 0.6
K. pneumoniae; planktonic K. pneumoniae, cutoff for positive-scoring molecules 3-fold increase, read-out: AK-based Prestwick Library Screening Results, K. pneumoniae (increase in extracellular AK activity)
  fold induction at 50 µM: 0.6
[2]; planktonic A. baumannii, cutoff for positive-scoring molecules 3-fold increase, read-out: AK-based Prestwick Library Screening Results, A. baumannii (increase in extracellular AK activity)
  fold induction at 50 µM: 0.9
P. aeruginosa; planktonic P. aeruginosa, cutoff for positive-scoring molecules 3-fold increase, read-out: AK-based Prestwick Library Screening Results, P. aeruginosa (increase in extracellular AK activity)
  fold induction at 50 µM: 0.6
E. cloacae; planktonic E. cloacae, cutoff for positive-scoring molecules 3-fold increase, read-out: AK-based Prestwick Library Screening Results, E. cloacae (increase in extracellular AK activity)
  fold induction at 50 µM: 0.9
E. coli; planktonic E. coli, cutoff for positive-scoring molecules 3-fold increase, read-out: AK-based Prestwick Library Screening Results, E. coli (increase in extracellular AK activity)
  fold induction at 50 µM: 0.6

## O=S(=O)(O)c1cc(O)ccc1O [Ethamsylate]
E. faecium; planktonic E. faecium, […], read-out: AK-based Prestwick library screening result, E. faecium (fold increase in extracellular AK activity)
  fold induction at 50 µM: 0.9
[1]; planktonic S. aureus, […], read-out: AK-based Prestwick library screening result, S. aureus (fold increase in extracellular AK activity)
  fold induction at 50 µM: 1
K. pneumoniae; planktonic K. pneumoniae, […], read-out: AK-based Prestwick library screening result, K. pneumoniae (fold increase in extracellular AK activity)
  fold induction at 50 µM: 1.1
[2]; planktonic A. baumannii, […], read-out: AK-based Prestwick library screening result, A. baumannii (fold increase in extracellular AK activity)
  fold induction at 50 µM: 1.2
P. aeruginosa; planktonic P. aeruginosa, […], read-out: AK-based Prestwick library screening result, P. aeruginosa (fold increase in extracellular AK activity)
  fold induction at 50 µM: 1
E. cloacae; planktonic E. cloacae, […], read-out: AK-based Prestwick library screening result, E. cloacae (fold increase in extracellular AK activity)
  fold induction at 50 µM: 0.8
E. coli; planktonic E. coli, […], read-out: AK-based Prestwick library screening result, E. coli (fold increase in extracellular AK activity)
  fold induction at 50 µM: 1.2

## CCOc1ccc(Cc2nccc3cc(OCC)c(OCC)cc23)cc1OCC [Ethaverine hydrochloride]
E. faecium; [3]
  fold induction at 50 µM: 1
[1]; [4]
  fold induction at 50 µM: 0.5
K. pneumoniae; [5]
  fold induction at 50 µM: 0.7
[2]; [6]
  fold induction at 50 µM: 0.9
P. aeruginosa; [7]
  fold induction at 50 µM: 0.9
E. cloacae; [8]
  fold induction at 50 µM: 1
E. coli; [9]
  fold induction at 50 µM: 0.9
